In the supplement of paper PMC10307832:

Experiments:
Experiment in all cases: relative viability (nuclei count vs DMSO), 5 days (fraction); higher = more cells survive
Tanzisertib + AZD7762 = compound: O[C@H]1CC[C@H](Nc2ncc3nc(Nc4c(F)cc(F)cc4F)n([C@H]4CCOC4)c3n2)CC1 [Tanzisertib] + NC(=O)Nc1cc(-c2cccc(F)c2)sc1C(=O)N[C@H]1CCCNC1 [AZD7762] (partner 0.2 µM)
In short: (§1)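 For relative viability, nuclei counts in treated wells were divided by those in vehicle wells. Lung cancer cell lines had been pin-tool dosed in 1536-well plates the day after seeding and cultured for 5 days, then fixed and stained in one step (final 0.05% Triton X-100, 1% formaldehyde, 1 ug/ml Hoechst) and imaged at 4×. Doses were one drug alone or a fixed anchor-drug dose plus five library-drug doses (not always all listed) in √10 steps, and values are duplicate-plate medians.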

[1] = compound: C[C@@H](N)c1ccc(C(=O)Nc2ccnc3[nH]ccc23)cc1 + C[C@]1(O)C[C@@H](c2nc(-c3ccc4ccc(-c5ccccc5)nc4c3)c3c(N)nccn32)C1 [Linsitinib] (partner 1 µM)
In short: as §1

Tanzisertib + OSI-027 = compound: O[C@H]1CC[C@H](Nc2ncc3nc(Nc4c(F)cc(F)cc4F)n([C@H]4CCOC4)c3n2)CC1 [Tanzisertib] + COc1cccc2cc(-c3nc([C@H]4CC[C@H](C(=O)O)CC4)n4ncnc(N)c34)[nH]c12 [OSI-027] (partner 0.5 µM)
In short: as §1

Tanzisertib + Pemetrexed = compound: O[C@H]1CC[C@H](Nc2ncc3nc(Nc4c(F)cc(F)cc4F)n([C@H]4CCOC4)c3n2)CC1 [Tanzisertib] + Nc1nc2[nH]cc(CCc3ccc(C(=O)N[C@@H](CCC(=O)O)C(=O)O)cc3)c2c(=O)[nH]1 [Pemetrexed] (partner 0.2 µM)
In short: as §1

Cell Line	relative viability (Tanzisertib + AZD7762; first compound 0.08 µM)	relative viability (Tanzisertib + AZD7762; first compound 0.253 µM)	relative viability (Tanzisertib + AZD7762; first compound 0.8 µM)	relative viability (Tanzisertib + AZD7762; first compound 2.53 µM)	relative viability (Tanzisertib + AZD7762; first compound 8 µM)	relative viability ([1]; first compound 0.04 µM)	relative viability ([1]; first compound 0.1265 µM)	relative viability ([1]; first compound 0.4 µM)	relative viability ([1]; first compound 1.265 µM)	relative viability ([1]; first compound 4 µM)	relative viability (Tanzisertib + OSI-027; first compound 0.08 µM)	relative viability (Tanzisertib + OSI-027; first compound 0.253 µM)	relative viability (Tanzisertib + OSI-027; first compound 0.8 µM)	relative viability (Tanzisertib + OSI-027; first compound 2.53 µM)	relative viability (Tanzisertib + OSI-027; first compound 8 µM)	relative viability (Tanzisertib + Pemetrexed; first compound 0.08 µM)	relative viability (Tanzisertib + Pemetrexed; first compound 0.253 µM)	relative viability (Tanzisertib + Pemetrexed; first compound 0.8 µM)	relative viability (Tanzisertib + Pemetrexed; first compound 2.53 µM)	relative viability (Tanzisertib + Pemetrexed; first compound 8 µM)
NCI-H838	0.964	0.962	0.889	0.909	0.972	0.945	0.905	0.796	0.533	0.367	0.401	0.426	0.453	0.418	0.4	0.234	0.255	0.254	0.233	0.25
NCI-H2085	–	0.974	1.02	0.981	1.02	1.02	0.907	0.905	0.868	0.777	0.937	0.666	0.804	0.705	0.515	–	0.934	0.942	0.841	0.765
NCI-H460	0.661	0.627	0.591	0.63	0.628	0.857	0.729	0.823	0.954	0.599	0.664	0.683	0.549	0.624	0.502	0.0668	0.0601	0.0628	0.0601	0.0429
RERF-LC-KJ	0.987	1.02	0.904	0.93	0.571	0.896	0.871	0.998	0.944	0.861	0.625	0.566	0.598	0.503	0.489	0.429	0.468	0.486	0.423	0.442
LCLC-103H	0.877	0.735	0.769	0.8	0.754	1.18	1.06	1.2	1.01	1.11	0.458	0.44	0.438	0.427	0.509	0.521	0.472	0.451	0.432	0.468
HCC-15	1.23	1.25	1.22	1.13	1	0.951	0.888	0.845	–	0.797	0.834	0.652	0.735	0.606	0.327	0.228	0.208	0.199	0.207	0.21
H3255	0.95	0.932	1	0.791	0.554	0.997	1.04	1.26	0.957	0.947	0.513	0.644	0.659	0.479	0.48	0.555	0.528	0.525	0.526	0.441
NCI-H1792	0.842	0.693	0.742	0.697	0.523	0.631	0.475	0.558	0.676	0.572	0.752	0.716	0.728	0.676	0.446	1.2	0.694	0.876	0.763	0.625
NCI-H596	1.04	1.04	1.12	0.995	1.04	1.06	1.05	1.22	1.09	1.01	0.779	0.666	0.766	0.63	0.555	0.506	0.538	0.515	0.516	0.467
NCI-H2087	1.48	1.07	1.33	1.41	1.26	1	0.823	0.916	0.824	0.478	0.564	0.578	0.712	0.521	0.338	0.702	0.661	0.668	0.691	0.706
EMC-BAC-2	1.16	1.15	1.04	0.947	1.04	0.84	0.846	0.738	0.827	0.613	0.404	0.383	0.383	0.37	0.363	0.429	0.427	0.432	0.451	0.469
NCI-H1355	0.847	0.822	0.813	0.71	0.708	0.853	0.723	0.833	–	0.771	0.479	0.425	0.445	0.423	0.371	1.07	1.06	1.05	1.07	1.03
NCI-H23	0.224	0.245	0.236	0.317	0.214	0.665	0.641	0.779	–	0.519	0.587	0.547	0.575	0.747	0.198	0.785	0.761	0.682	0.681	0.584
NCI-H1651	0.507	0.464	0.43	0.426	0.378	1.12	0.932	0.987	1.13	0.994	0.712	0.58	0.833	0.614	0.678	0.586	0.625	0.436	0.6	0.513
NCI-H1975	0.697	0.794	0.752	0.653	0.54	1.01	0.915	0.964	0.778	0.619	0.926	0.773	0.671	0.673	0.587	0.304	0.294	0.267	0.317	0.254
HCC-44	0.987	1.05	0.997	1.01	1.15	0.703	0.682	0.708	0.713	0.532	0.665	0.557	0.546	0.561	0.353	0.642	0.637	0.597	0.624	0.688

Cell Line	relative viability (Tanzisertib + AZD7762; first compound 0.08 µM)	relative viability (Tanzisertib + AZD7762; first compound 0.253 µM)	relative viability (Tanzisertib + AZD7762; first compound 0.8 µM)	relative viability (Tanzisertib + AZD7762; first compound 2.53 µM)	relative viability (Tanzisertib + AZD7762; first compound 8 µM)	relative viability ([1]; first compound 0.04 µM)	relative viability ([1]; first compound 0.1265 µM)	relative viability ([1]; first compound 0.4 µM)	relative viability ([1]; first compound 1.265 µM)	relative viability ([1]; first compound 4 µM)	relative viability (Tanzisertib + OSI-027; first compound 0.08 µM)	relative viability (Tanzisertib + OSI-027; first compound 0.253 µM)	relative viability (Tanzisertib + OSI-027; first compound 0.8 µM)	relative viability (Tanzisertib + OSI-027; first compound 2.53 µM)	relative viability (Tanzisertib + OSI-027; first compound 8 µM)	relative viability (Tanzisertib + Pemetrexed; first compound 0.08 µM)	relative viability (Tanzisertib + Pemetrexed; first compound 0.253 µM)	relative viability (Tanzisertib + Pemetrexed; first compound 0.8 µM)	relative viability (Tanzisertib + Pemetrexed; first compound 2.53 µM)	relative viability (Tanzisertib + Pemetrexed; first compound 8 µM)
LOU-NH91	0.781	0.782	0.806	0.746	0.676	0.831	0.979	0.778	0.726	0.702	0.785	0.758	0.756	0.671	0.489	0.42	0.42	0.399	0.403	0.387
NCI-H441	1.21	0.989	1.07	1.11	1.08	0.626	0.571	0.64	0.483	0.45	0.855	0.505	0.467	0.444	0.403	0.27	0.241	0.286	0.24	0.27
NCI-H647	0.675	0.549	0.546	0.534	0.18	1.14	1.18	1.22	1.28	0.976	0.694	0.644	0.569	0.63	0.69	0.204	0.185	0.18	0.151	0.156
NCI-H1915	0.716	0.675	0.709	0.714	0.653	1.1	1.13	1.12	–	1.03	0.695	0.633	0.615	0.669	0.34	0.565	0.451	0.486	0.501	0.49
NCI-H1734	0.596	0.532	0.558	0.534	0.526	0.901	0.905	0.805	–	0.708	0.758	0.581	0.588	0.723	0.586	0.428	0.423	0.408	0.403	0.402
NCI-H1993	1.21	0.867	0.731	0.68	0.823	0.824	0.753	–	0.834	0.663	0.604	0.578	0.485	0.498	0.59	0.621	0.585	0.605	0.561	0.54
LK-2	0.41	0.455	0.421	0.32	0.346	0.822	0.542	0.809	0.554	0.721	0.26	0.209	0.193	0.16	0.186	0.294	0.273	0.161	0.234	0.244
HCC-78	0.694	0.723	0.634	0.474	0.5	0.776	0.518	0.804	0.735	0.424	0.344	0.376	0.396	0.382	0.316	0.965	0.901	0.915	0.882	0.934
NCI-H2405	0.767	0.794	0.757	0.795	0.617	–	1.07	0.744	0.599	0.45	0.7	0.596	0.682	0.703	0.532	1.1	1.1	1	1.24	0.955
HOP-62	0.483	0.503	0.708	0.625	0.47	0.972	0.983	0.88	1.03	0.954	0.845	0.868	0.76	0.833	0.848	0.301	0.346	0.31	0.315	0.353
NCI-H650	1.03	1.32	1.01	1.3	0.489	0.723	0.751	0.841	–	0.658	0.517	0.661	0.508	0.624	0.441	0.885	1.03	0.969	1.09	0.576
NCI-H358	0.468	0.494	0.695	0.453	0.387	0.707	0.655	0.732	0.801	0.702	0.817	0.637	0.661	0.655	0.501	0.165	0.176	0.171	0.163	0.179
BEN	0.622	0.8	0.868	0.724	0.565	0.981	0.86	0.991	1.02	0.636	0.299	0.281	0.293	0.314	0.288	0.755	0.923	1	0.909	0.605
NCI-H1755	0.462	0.474	0.441	0.399	0.384	1.03	0.977	0.947	0.86	0.716	0.747	0.77	0.676	0.706	0.517	0.368	0.451	0.565	0.408	0.404
LC-2-ad	0.839	0.898	0.867	0.833	0.676	0.849	0.922	0.877	0.83	0.615	1.02	0.744	0.911	0.915	0.606	0.282	0.292	0.275	0.272	0.294
NCI-H1666	0.939	0.905	0.848	0.9	0.684	0.849	1.04	1.01	1.12	0.966	0.877	0.869	0.944	0.834	0.786	0.894	0.789	0.865	0.941	0.796
